Experimental data reported in patent US20060204596A1, “Formulation of a mixture of Free-B-Ring flavonoids and flavans as a therapeutic agent” (Unigen Pharmaceuticals, Inc., priority 2005, published 2006).
Where two headings read alike, the source gives them in different places. Marks after values point to notes of the source that are not given here.

Key:
[1] = biological target: T1, COX-2 (Homo sapiens, UniProt P35354); assay: COX-2 enzymatic inhibition; format: biochemical
T1 sequence (P35354 18-604): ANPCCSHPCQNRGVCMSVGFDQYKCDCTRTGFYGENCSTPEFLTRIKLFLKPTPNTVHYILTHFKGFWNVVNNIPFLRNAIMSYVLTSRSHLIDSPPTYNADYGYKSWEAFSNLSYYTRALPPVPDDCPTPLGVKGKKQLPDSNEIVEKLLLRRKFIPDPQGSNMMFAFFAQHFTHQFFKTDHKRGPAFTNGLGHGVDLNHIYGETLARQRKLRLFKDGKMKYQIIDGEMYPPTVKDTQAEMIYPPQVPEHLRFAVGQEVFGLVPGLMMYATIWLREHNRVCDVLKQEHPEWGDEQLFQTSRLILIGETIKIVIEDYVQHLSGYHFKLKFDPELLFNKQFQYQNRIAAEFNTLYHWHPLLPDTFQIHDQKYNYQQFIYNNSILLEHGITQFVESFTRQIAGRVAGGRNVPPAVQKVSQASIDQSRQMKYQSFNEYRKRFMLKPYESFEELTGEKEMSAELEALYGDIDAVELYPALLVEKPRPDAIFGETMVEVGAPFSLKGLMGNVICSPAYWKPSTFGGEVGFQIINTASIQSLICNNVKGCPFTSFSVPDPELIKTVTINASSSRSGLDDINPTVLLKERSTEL
Excerpt: (§1) UP736 is a natural product derived from two traditional plants that contain antioxidants and other naturally occurring dietary compounds that aid the body in multiple ways.

[2] = test system: arachidonic acid induced platelet aggregation; assay: platelet aggregation assay in platelet rich plasma; format: cell-based, New Zealand Rabbits; details: UP736 0
Description: UP736, aspirin or combinations thereof were dissolved in 0.3% DMSO and incubated with the plasma at 37° C. for 5 minutes. Agonist or antagonist effect of the compounds was quantified by optical density of aggregation. Significance criteria used for agonist effect is that >50% platelet aggregation relative to arachidonic acid response. […] In this assay, various concentrations of UP736 (10, 2 and 0.2 μM) and aspirin (30 and 3 μM) were tested individually as either agonist or antagonist of platelet aggregation in platelet rich rabbit plasma. […] In another assay (Test# 2) performed under the same experimental conditions, mixtures of UP736 at lower concentrations (0.2, 0.067, 0.022 and 0.007 μM) and aspirin at a concentration of 3 μM were tested.

[3] = test system: bleeding time; assay: bleeding time assay (Test #3, #4); format: in vivo, ICR male mice
Description: The bleeding time assay was conducted according to the method described by […] and Kling (1997) Thrombosis Research 10:619-622) and Butler et al. (1982) Thromb Haemostas 47:46-49. Test articles were administered to five ICR male mice one hour before standardized transection of the tip (1.0 mm) of each tail. The mice restrained in holders were immediately suspended vertically with the tail tips immersed in a test tube containing saline at 37° C. There was no maximum cut-off time set. The measurements started as actual bleeding was observed and stopped as bleeding ceased for 15 seconds or longer at any time. Data were analyzed using the Student's t-test. In one assay (Test #3), aspirin alone at 3, 10, 65 and 100 mg/kg or UP736 at a dose of 100 mg/kg, alone or in combination with aspirin at 3, 10 and 65 mg/kg was administered orally to groups of 5 ICR male mice. […] The assay was repeated under the same experimental conditions (Test # 4).

[4] = test system: bleeding time; design: species or system ICR derived male mice; details: male, ICR, mouse, in vivo, po, 1 h
Description: To verify the bleeding time results, UP736 or UP736 in combination with aspirin was tested again in an independent study (Test #5) using a modified procedure carried out. UP736 was administered orally at a dose of 100 mg/kg, alone or in combination with aspirin at 3, 10 and 30 mg/kg to groups of 5 ICR derived male mice, weighing 22±2 g, 1 hour before transection of the tip (0.3 mm) of each tail. In addition, aspirin alone at 3, 10, 30 and 100 mg/kg was similarly given to mice. The mice, in holders, were immediately suspended vertically with the distal 2 cm of each tail immersed in a test tube containing saline at 37° C. A maximum cut-off time of 180 seconds was set. If bleeding ceased for 15 seconds or longer at any time during the 180 seconds observation period, the measurements were discontinued and any subsequent bleeding would not be considered. Prolongation of bleeding time by 50 percent or more (50%) relative to a control group of animals was considered significant. The results are consistent with those obtained from the above-described experiments (Test #3 and # 4).

[5] = biological target: T2, COX-1 (Homo sapiens, UniProt P23219); details: cited from earlier work
[6] = biological target: T2, COX-1; assay: COX-1 enzymatic inhibition; format: biochemical
Excerpt: as §1

[7] = Oxygen Radical Absorption Capacity (ORAC)
Excerpt: […]. However, it can be preserved by a number of preservatives, including but not limited to stannous chloride (SnCl2), sodium bisulfate/metabisulfite (SBS), and other preservatives.

[8] = Test #3 (n = 5), 3 mg/kg orally
[9] = Test #3 (n = 5), 10 mg/kg orally
[10] = Test #3 (n = 5), 65 mg/kg orally
[11] = Test #3 (n = 5), 100 mg/kg orally
[12] = Test #3 and #4 combined (n = 9-10), 3 mg/kg orally
[13] = Test #3 and #4 combined (n = 9-10), 10 mg/kg orally
[14] = Test #3 and #4 combined (n = 9-10), 65 mg/kg orally
[15] = Test #3 and #4 combined (n = 9-10), 100 mg/kg orally
[16] = Test #4 (n = 5), 3 mg/kg orally
[17] = Test #4 (n = 5), 10 mg/kg orally
[18] = Test #4 (n = 5), 65 mg/kg orally
[19] = Test #4 (n = 5), 100 mg/kg orally

T2 sequence (P23219 24-599): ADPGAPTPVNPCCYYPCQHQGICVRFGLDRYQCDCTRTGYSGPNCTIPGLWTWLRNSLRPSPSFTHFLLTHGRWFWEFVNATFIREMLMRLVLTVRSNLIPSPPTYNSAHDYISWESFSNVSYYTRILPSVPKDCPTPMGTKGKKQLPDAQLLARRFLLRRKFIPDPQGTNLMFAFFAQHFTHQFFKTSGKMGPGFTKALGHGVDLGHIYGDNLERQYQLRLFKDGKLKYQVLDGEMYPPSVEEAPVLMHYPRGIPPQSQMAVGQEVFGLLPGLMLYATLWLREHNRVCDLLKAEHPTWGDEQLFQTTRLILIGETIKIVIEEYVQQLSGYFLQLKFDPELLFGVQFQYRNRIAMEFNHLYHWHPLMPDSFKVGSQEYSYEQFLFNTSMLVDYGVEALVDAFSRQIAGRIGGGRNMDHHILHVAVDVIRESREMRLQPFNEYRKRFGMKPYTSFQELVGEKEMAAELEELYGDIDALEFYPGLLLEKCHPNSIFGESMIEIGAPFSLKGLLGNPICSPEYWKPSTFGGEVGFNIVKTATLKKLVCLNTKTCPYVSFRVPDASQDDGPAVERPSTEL

## CC(=O)Oc1ccccc1C(=O)O [Aspirin]
[1]
  COX-2 Selectivity Relative COX-1: 0.006
[2]; Test #1, aspirin 3.0 μM
  Agonist Effect: 0%
  Antagonist Effect: 1%
[2]; Test #1, aspirin 30.0 μM
  Agonist Effect: 0%
  Antagonist Effect: 100%
[2]; Test #2, aspirin 3.0 μM
  Agonist Effect: 0%
  Antagonist Effect: 8%
[3]; [8]
  % Change Relative to Vehicle Group: 18.7 ↑ %
  Average Bleeding Time ± SD: 77.2 ± 13.0 s
[3]; [9]
  % Change Relative to Vehicle Group: 14.5 ↑ %
  Average Bleeding Time ± SD: 74.4 ± 15.4 s
[3]; [10]
  % Change Relative to Vehicle Group: 61.5* ↑ %
  Average Bleeding Time ± SD: 105 ± 15.1 s
[3]; [11]
  % Change Relative to Vehicle Group: 83* ↑ %
  Average Bleeding Time ± SD: 119 ± 14.0 s
[3]; [12]
  % Change Relative to Vehicle Group: 21.7 ↑ %
  Average Bleeding Time ± SD: 83.3 ± 12.6 s
[3]; [13]
  % Change Relative to Vehicle Group: 15.6 ↑ %
  Average Bleeding Time ± SD: 79.5 ± 13.1 s
[3]; [14]
  % Change Relative to Vehicle Group: 46.1 ↑ %
  Average Bleeding Time ± SD: 100.5 ± 11.9 s
[3]; [15]
  % Change Relative to Vehicle Group: 78.2 ↑ %
  Average Bleeding Time ± SD: 122.6 ± 13.9 s
[3]; [16]
  % Change Relative to Vehicle Group: 23.1 ↑ %
  Average Bleeding Time ± SD: 89.4 ± 9.7 s
[3]; [17]
  % Change Relative to Vehicle Group: 16.5 ↑ %
  Average Bleeding Time ± SD: 84.6 ± 9.0 s
[3]; [18]
  % Change Relative to Vehicle Group: 32.2* ↑ %
  Average Bleeding Time ± SD: 96 ± 6.4 s
[3]; [19]
  % Change Relative to Vehicle Group: 73.8* ↑ %
  Average Bleeding Time ± SD: 126.2 ± 14.3 s
[4]; 3 mg/kg
  % Change Relative to Vehicle Group: 0%
  Average Bleeding Time ± SD: 42.8 ± 26.2 s
[4]; 10 mg/kg
  % Change Relative to Vehicle Group: 0%
  Average Bleeding Time ± SD: 39.8 ± 22.4 s
[4]; 30 mg/kg
  % Change Relative to Vehicle Group: 27 ↑ %
  Average Bleeding Time ± SD: 56.4 ± 27.3 s
[4]; 100 mg/kg
  % Change Relative to Vehicle Group: 70* ↑ %
  Average Bleeding Time ± SD: 75.0 ± 38.8 s
[5]
  selective against COX-1: more than 150 times

## CC1(C)Cc2c(-c3ccccc3)c(-c3ccc(Cl)cc3)c(CC(=O)O)n2C1 [Licofelone]
[1]
  COX-2 Selectivity Relative COX-1: 1

## CS(=O)(=O)c1ccc(C2=C(c3ccccc3)C(=O)OC2)cc1 [Rofecoxib]
[1]
  COX-2 Selectivity Relative COX-1: 250

## O=C(O)[C@H]1O[C@@H](Oc2cc3oc(-c4ccccc4)cc(=O)c3c(O)c2O)[C@H](O)[C@@H](O)[C@@H]1O [baicalin]
[6]
  IC50 for COX-1: 0.44 μg/mL/unit of enzyme
[1]
  IC50 for COX-2: 0.28 μg/mL/unit
[1]; COX-1 vs COX-2 IC50 profile
  selectivity against COX-2: twice

## catechin
[7]
  Oxygen Radical Absorption Capacity (ORAC): 20,000
